These results are taken from patent US12371454B2, “Cyclic peptide compound having Kras inhibitory action” (priority 2019, dated 2025).

SMILES strings stand for the structures. Starred links: 1 amine or outer side, 2 acyl side, 3 side chain; linkers in the order of their positions; H or OH if unused. Positions of bridges follow the written chain, without caps; N, C: chain ends. Non-standard residues stand in square brackets, D forms with d. Residues, ends and D or L forms follow the SMILES beside them. *: point of attachment. hPhe(3,5-F2-4-CF3) = N[C@@H](CCc1cc(F)c(C(F)(F)F)c(F)c1)C(=O)O; hPhe(3-Cl-4-CF3) = N[C@@H](CCc1ccc(C(F)(F)F)c(Cl)c1)C(=O)O; hPhe(3-F,4-CF3) = N[C@@H](CCc1ccc(C(F)(F)F)c(F)c1)C(=O)O; NMePhe(4-CF3) = CN[C@@H](Cc1ccc(C(F)(F)F)cc1)C(=O)O; X63 = O=C(C(CCc1ccc(C(F)(F)F)c(Cl)c1)N[*:1])[*:2]; NMePhe(4-Me) = CN[C@@H](Cc1ccc(C)cc1)C(=O)O; NMeNle(6-CHF2) = CN[C@@H](CCCCC(F)F)C(=O)O; X6 = CCN([C@@H](CC1CCCCC1)C(=O)[*:2])[*:1]; NMedβ3hAla = C[C@H](CC(=O)[*:2])N(C)[*:1]; NMeAla(cPent) = CN[C@@H](CC1CCCC1)C(=O)O; NMeGly(cPent) = CN[C@H](C(=O)O)C1CCCC1; NMe4Pal = CN[C@@H](Cc1ccncc1)C(=O)O; NMeY = CN[C@@H](Cc1ccc(O)cc1)C(=O)O; X64 = CN(C)CCOCCN(CC(=O)[*:2])[*:1]; NMeCha = CN[C@@H](CC1CCCCC1)C(=O)O; NMeChg = CN[C@H](C(=O)O)C1CCCCC1; NMeI = CC[C@H](C)[C@H](NC)C(=O)O; NMeD = CN[C@@H](CC(=O)O)C(=O)O; NMeL = CN[C@@H](CC(C)C)C(=O)O; NMeAc5c = CNC1(C(=O)O)CCCC1; NMeV = CN[C@H](C(=O)O)C(C)C; NMeA = CN[C@@H](C)C(=O)O; Piperidide = C1CCN(*)CC1; Pyrrolidide = C1CCN(*)C1; Ac5c = NC1(C(=O)O)CCCC1; Aze = O=C(O)[C@@H]1CCN1; Sar = CNCC(=O)O

The first experiment deals with T1, Kras and SOS1 (biotin-tagged human Kras loaded with GDP, His-tagged human SOS1) (Homo sapiens, UniProt P01116, G12D).
T1 construct: made in house; host or cells: E. coli (stated for Kras only)
T1 sequence (P01116 1-188 isoform P01116-2 G12D): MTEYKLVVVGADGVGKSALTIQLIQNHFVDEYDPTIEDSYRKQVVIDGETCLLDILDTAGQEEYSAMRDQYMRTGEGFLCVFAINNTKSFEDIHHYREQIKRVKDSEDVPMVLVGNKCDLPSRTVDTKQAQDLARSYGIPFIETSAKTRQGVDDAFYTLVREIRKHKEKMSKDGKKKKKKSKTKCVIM
The experiment in a line: Protein-protein interaction inhibition between Kras and SOS1 (KrasGl2D-SOS PPI) using AlphaScreen. It is filed as binding. Particulars: AlphaScreen; biotin-tagged human Kras loaded with GDP, His-tagged human SOS1; read-out: KRAS G12D-SOS PPI IC50. In short, it runs like this:
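Binding between SOS1 and Kras is detected as bead-proximity luminescence: illuminate Ni-conjugated donors (680 nm), collect 520-620 nm emission from streptavidin-conjugated acceptors; Kras carries biotin and GDP loaded after purification, SOS1 carries a His tag.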
For the compound `CC[C@H](C)[C@@H]1NC(=O)[C@H](CC(C)C)N(C)C(=O)C[C@@H](C(=O)N2CCCCC2)N(C)C(=O)[C@H](C2CCCCC2)N(C)C(=O)C2(CCCC2)NC(=O)[C@H](Cc2ccc(OC)cc2)N(C)C(=O)[C@H](CCc2ccc(C(F)(F)F)c(Cl)c2)NC(=O)CN(C)C(=O)[C@H](CC2CCCCC2)N(C)C(=O)CN(C)C(=O)CN(C)C1=O` [Compound 2171] ([NMeL]I[Sar][Sar][NMeCha][Sar][hPhe(3-Cl-4-CF3)][NMeY](Me)[Ac5c][NMeChg][NMeD]-Piperidide; lactam N-11), the IC50 was found to be 120 nM.

Take `CC[C@H](C)[C@@H]1NC(=O)[C@H](CC(C)C)N(C)C(=O)C[C@@H](C(=O)N(C)C)N(C)C(=O)[C@H]([C@@H](C)CC)N(C)C(=O)C2(CCCC2)NC(=O)CN(CCOCCN(C)C)C(=O)C(CCc2ccc(C(F)(F)F)c(Cl)c2)NC(=O)CN(C)C(=O)[C@H](Cc2ccc(C)cc2)N(C)C(=O)[C@@H]2CCN2C(=O)[C@H](C)N(C)C1=O` (stereo partly drawn) [Compound 2181, (3S,6S,9S,13S,16S,31S,34S)-25-[2-[3-chloro-4-(trifluoromethyl)phenyl]ethyl]-23-[2-[2-(dimethylamino)ethoxy]ethyl]-9-isobutyl-N,N,3,4,10,14,17,29,32-nonamethyl-6,16-bis[(1S)-1-methylpropyl]-2,5,8,11,15,18,21,24,27,30,33-undecaoxo-31-(p-tolylmethyl)spiro[1,4,7,10,14,17,20,23,26,29,32-undecazabicyclo[32.2.0]hexatriacontane-19,1′-cyclopentane]-13-carboxamide] ([NMeL]I[NMeA][Aze][NMePhe(4-Me)][Sar][X63][X64][Ac5c][NMeI][NMeD]-NMe2; lactam N-11): the IC50 was 5.5 nM.

In a further experiment the test system is Human pancreatic cancer cell line AsPC-1. The experiment in a line: Measurement of AsPC-1 cell growth inhibition (AsPC-1 CGI). Format: cell-based. The conditions noted are these: 96 h. The procedure: Measurement of AsPC-1 Cell Growth Inhibition (AsPC-1 CGI)
Test compounds were serially diluted with dimethyl sulfoxide, and 200 nL was then dispensed to a U-bottom 96-well plate using Labcyte Echo. Human pancreatic cancer cell line AsPC-1 was suspended in RPMI-1640 medium supplemented with 15% fetal bovine serum to prepare a cell suspension at 1000 cells/100 μL. The cell suspension was dispensed to a plate containing a test compound at 100 μL per well and incubated at 37° C. in a 5% carbon dioxide gas incubator. 96 hours later, 80 μL of CellTiter-Glo (Promega) was added to each well and […] was measured.
For `CC[C@H](C)[C@@H]1NC(=O)[C@H](CC(C)C)N(C)C(=O)C[C@@H](C)N(C)C(=O)[C@H](CC(C)C)NC(=O)C2(CCCC2)N(C)C(=O)[C@H](CC(C)C)NC(=O)[C@H](CCc2ccc(C(F)(F)F)c(F)c2)NC(=O)CN(C)C(=O)[C@H](CC2CCCCC2)N(C)C(=O)CN(C)C(=O)CN(C)C1=O` [Compound 2] (cyclo(I[Sar][Sar][NMeCha][Sar][hPhe(3-F,4-CF3)]L[NMeAc5c]L[NMedβ3hAla][NMeL])), the IC50 is 100 to 500 nM.

`CC[C@H](C)[C@@H]1NC(=O)[C@H](CC(C)C)N(C)C(=O)C[C@@H](C(=O)N2CCCCC2)N(C)C(=O)[C@H](C(C)C)N(C)C(=O)C2(CCCC2)NC(=O)[C@@H]2CCCN2C(=O)[C@H](CCc2ccc(C(F)(F)F)c(Cl)c2)NC(=O)CN(C)C(=O)[C@H](CC2CCCCC2)N(CC)C(=O)[C@@H]2CCN2C(=O)[C@H](C)N(C)C1=O` [Compound 23] ([NMeL]I[NMeA][Aze][X6][Sar][hPhe(3-Cl-4-CF3)]P[Ac5c][NMeV][NMeD]-Piperidide; lactam N-11) displayed an IC50 of 100 to 500 nM.

The compound `CC[C@H](C)[C@@H]1NC(=O)[C@H](CC(C)C)N(C)C(=O)C[C@@H](C(=O)N2CCCCC2)N(C)C(=O)[C@H](C2CCCCC2)N(C)C(=O)C2(CCCC2)NC(=O)[C@H](Cc2ccncc2)N(C)C(=O)[C@H](CCc2ccc(C(F)(F)F)c(Cl)c2)NC(=O)CN(C)C(=O)[C@H](CC2CCCCC2)N(C)C(=O)CN(C)C(=O)CN(C)C1=O` [Compound 36] ([NMeL]I[Sar][Sar][NMeCha][Sar][hPhe(3-Cl-4-CF3)][NMe4Pal][Ac5c][NMeChg][NMeD]-Piperidide; lactam N-11) registered an IC50 of 100 to 500 nM.

Compound `CC[C@H](C)[C@@H]1NC(=O)[C@H](CC2CCCC2)N(C)C(=O)C[C@@H](C(=O)N2CCCCC2)N(C)C(=O)[C@H](C(C)C)N(C)C(=O)C2(CCCC2)NC(=O)[C@@H]2CCCN2C(=O)[C@H](CCc2ccc(C(F)(F)F)c(Cl)c2)NC(=O)CN(C)C(=O)[C@H](CC2CCCCC2)N(C)C(=O)[C@@H]2CCN2C(=O)[C@H](C)N(C)C1=O` [Compound 37] ([NMeAla(cPent)]I[NMeA][Aze][NMeCha][Sar][hPhe(3-Cl-4-CF3)]P[Ac5c][NMeV][NMeD]-Piperidide; lactam N-11) came in with an IC50 of 100 to 500 nM.

In the case of `CC[C@H](C)[C@@H]1NC(=O)[C@H](CC(C)C)N(C)C(=O)C[C@@H](C)N(C)C(=O)[C@H](C2CCCCC2)N(C)C(=O)C2(CCCC2)NC(=O)[C@@H]2CCCN2C(=O)[C@H](CCc2cc(F)c(C(F)(F)F)c(F)c2)NC(=O)CN(C)C(=O)[C@H](Cc2ccc(C(F)(F)F)cc2)N(C)C(=O)[C@@H]2CCN2C(=O)[C@H](C)N(C)C1=O` [Compound 39] (cyclo([Ac5c][NMeChg][NMedβ3hAla][NMeL]I[NMeA][Aze][NMePhe(4-CF3)][Sar][hPhe(3,5-F2-4-CF3)]P)), the IC50 is 100 to 500 nM.

`CC[C@H](C)[C@@H]1NC(=O)[C@H](CC(C)C)N(C)C(=O)C[C@@H](C(=O)N2CCCC2)N(C)C(=O)[C@H]([C@@H](C)CC)N(C)C(=O)C2(CCCC2)NC(=O)[C@@H]2CCCN2C(=O)[C@H](CCc2ccc(C(F)(F)F)c(F)c2)NC(=O)CN(C)C(=O)[C@H](Cc2ccc(C)cc2)N(C)C(=O)[C@@H]2CCN2C(=O)[C@H](C)N(C)C1=O` [Compound 44] ([NMeL]I[NMeA][Aze][NMePhe(4-Me)][Sar][hPhe(3-F,4-CF3)]P[Ac5c][NMeI][NMeD]-Pyrrolidide; lactam N-11) registered an IC50 of 20 to 50 nM.

In turn, `CC[C@H](C)[C@@H]1NC(=O)[C@H](CC(C)C)N(C)C(=O)C[C@@H](C)N(C)C(=O)[C@H](C2CCCC2)N(C)C(=O)C2(CCCC2)NC(=O)[C@@H]2CCCN2C(=O)[C@H](CCc2ccc(C(F)(F)F)c(F)c2)NC(=O)CN(C)C(=O)[C@H](CC2CCCCC2)N(C)C(=O)[C@@H]2CCN2C(=O)[C@H](C)N(C)C1=O` [Compound 49] (cyclo([Ac5c][NMeGly(cPent)][NMedβ3hAla][NMeL]I[NMeA][Aze][NMeCha][Sar][hPhe(3-F,4-CF3)]P)) displayed an IC50 of 20 to 50 nM.

`CC[C@H](C)[C@@H]1NC(=O)[C@H](C2CCCCC2)N(C)C(=O)C[C@@H](C(=O)N2CCCCC2)N(C)C(=O)[C@H](C(C)C)N(C)C(=O)C2(CCCC2)NC(=O)[C@@H]2CCCN2C(=O)[C@H](CCc2ccc(C(F)(F)F)c(Cl)c2)NC(=O)CN(C)C(=O)[C@H](CC2CCCCC2)N(C)C(=O)[C@@H]2CCN2C(=O)[C@H](C)N(C)C1=O` [Compound 58] ([NMeChg]I[NMeA][Aze][NMeCha][Sar][hPhe(3-Cl-4-CF3)]P[Ac5c][NMeV][NMeD]-Piperidide; lactam N-11) yielded a half-maximal inhibitory concentration (IC50) of 100 to 500 nM.

With `CC[C@H](C)[C@@H]1NC(=O)[C@H](CC(C)C)N(C)C(=O)C[C@@H](C(=O)N2CCCCC2)N(C)C(=O)[C@H](C(C)C)N(C)C(=O)C2(CCCC2)NC(=O)[C@@H]2CCCN2C(=O)[C@H](CCc2ccc(C(F)(F)F)c(Cl)c2)NC(=O)CN(C)C(=O)[C@H](CCCCC(F)F)N(C)C(=O)[C@@H]2CCN2C(=O)[C@H](C)N(C)C1=O` [Compound 78] ([NMeL]I[NMeA][Aze][NMeNle(6-CHF2)][Sar][hPhe(3-Cl-4-CF3)]P[Ac5c][NMeV][NMeD]-Piperidide; lactam N-11), the IC50 lay within 100 to 500 nM.

Consider `CC[C@H](C)[C@@H]1NC(=O)[C@H](CC(C)C)N(C)C(=O)C[C@@H](C)N(C)C(=O)[C@H]([C@@H](C)CC)N(C)C(=O)C2(CCCC2)NC(=O)[C@@H]2CCCN2C(=O)[C@H](CCc2ccc(C(F)(F)F)c(Cl)c2)NC(=O)CN(C)C(=O)[C@H](C2CCCC2)N(C)C(=O)[C@@H]2CCN2C(=O)[C@H](C)N(C)C1=O` [Compound 79] (cyclo([Ac5c][NMeI][NMedβ3hAla][NMeL]I[NMeA][Aze][NMeGly(cPent)][Sar][hPhe(3-Cl-4-CF3)]P)), for which the IC50 lay within 20 to 50 nM.
